{
  "source": "patent US20240130966A1",
  "about": "(Aerovate Therapeutics, Inc., priority 2021, published 2024)",
  "procedure": "Generator impactor profiles were prepared for ceramic milled powders both before and after conditioning with high humidity for a short time (80-90% RH at room temperature for ˜3 hours).\nAgain, the exposure consisted of 80%-90% relative humidity at room temperature for about 3 hours.",
  "key": {"[1]": {"conditions": "Post-exposure, 80%-90% relative humidity at room temperature for about 3 hours (N=9)"}},
  "note": "Like-named read-outs stand apart in the source and are kept apart here.",
  "data": [
    {"substance": "Imatinib", "values": [
      {"measurement": "FPF of emitted dose (%)", "setting": "[1]", "value": "66.8 +/− 4.3%"},
      {"measurement": "FPF of fill (%)", "setting": "[1]", "value": "48.1 +/− 3.0%"},
      {"measurement": "FPF of emitted dose (%)", "setting": "Pre-exposure to humidity (N=7)", "value": "52.3 +/− 6.3%"},
      {"measurement": "FPF of fill (%)", "setting": "Pre-exposure to humidity (N=7)", "value": "36.2 +/− 3.5%"},
      {"measurement": "Increase in fine particle dose (stage 3-MOC levels) after humidity conditioning", "setting": "ceramic milled powders, 80-90% RH at room temperature for ~3 hours, FIG. 1", "value": "10-20 % of the capsule fill dose"},
      {"measurement": "Delivery performance after desorption compared to post-humidification powders", "setting": "humidity for 12+ hours, then desorbed at <5% RH for about 24 hours", "value": "no change in delivery performance"}
    ]}
  ]
}
